Here are results for 13 compounds from patent publication US20250059205A1, “Heterocyclic Compounds and Methods of Use” (AMGEN INC., priority 2021, published 2025).

Assay [1] concerns the target GDP-bound KRAS protein (aa 1-169), containing both G12D and C118A amino acid substitutions (Homo sapiens, UniProt P01116, C118A/G12D). Briefly: KRAS G12D Coupled Nucleotide Exchange Assay. It counts as biochemical. To be noted: 2 h compound pre-incubation. How it is done: Following compound pre-incubation, purified SOS protein (aa 564-1049) and GTP (Roche 10106399001) were added to the assay wells and incubated for an additional 30 min. […] The assay plates were then read on a PerkinElmer EnVision Multilabel Reader, using AlphaScreen® technology, and data were analyzed using a 4-parameter logistic model to calculate IC50 values.

For assay [2], the system named is Phosphorylation of ERK1/2 in A-427 cells. Put plainly: Phospho-ERK1/2 MSD Assay (A-427 cells). It is filed as cell-based. To be noted: Homo sapiens, A-427, 2 h, 2 h treatment, read-out: p-ERK (A427 cells) IC50. The method in brief:
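ERK1/2 phosphorylation measured by Meso Scale whole-cell lysate assay after A-427 cells were exposed to a titration of compound for 2 h at 37 °C.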

In assay [3] the target is His-tagged KRAS G12D protein (Homo sapiens, UniProt P01116, G12D). Briefly: KRAS G12D TR-FRET Assay. It counts as binding.
Assay [4] has as its system Phosphorylation of ERK1/2 in AsPC-1 cells. Briefly: Phospho-ERK1/2 MSD Assay (AsPC-1 cells). It counts as cell-based. Particulars: Homo sapiens, ASPC1, 2 h, 2 hours treatment, read-out: p-ERK (AsPC-1 cells) IC50. A digest of the protocol: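 Read-out: MSD electrochemiluminescent detection of phosphorylated ERK1/2 in whole-cell lysates, fitted to a 4-parameter logistic curve for IC50. Prior to lysis, AsPC-1 cells (25,000 per well) received a 2 h compound dose-response at 37 °C.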

Chain of His-tagged KRAS G12D protein (P01116 1-188 isoform P01116-2 G12D): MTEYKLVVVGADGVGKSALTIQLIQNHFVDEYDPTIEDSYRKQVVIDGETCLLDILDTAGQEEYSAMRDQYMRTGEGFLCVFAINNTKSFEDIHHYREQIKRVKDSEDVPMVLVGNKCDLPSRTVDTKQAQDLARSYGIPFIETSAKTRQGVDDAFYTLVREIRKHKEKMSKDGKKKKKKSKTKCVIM
Chain of GDP-bound KRAS protein (aa 1-169), containing both G12D and C118A amino acid substitutions (P01116 1-169 isoform P01116-2 G12D/C118A): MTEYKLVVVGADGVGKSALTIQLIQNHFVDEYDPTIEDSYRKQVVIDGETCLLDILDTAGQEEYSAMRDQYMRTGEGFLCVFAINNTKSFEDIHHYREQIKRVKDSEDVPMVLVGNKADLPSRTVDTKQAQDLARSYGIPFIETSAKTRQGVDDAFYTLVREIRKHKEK

Broadly, the IC50 is the concentration that inhibits the measured activity by half. Regarding `Oc1cc(-c2ccc3c(N4C[C@H]5CC[C@@H](C4)N5)nc(OC[C@@]45CCCN4C[C@H](F)C5)nc3c2F)c2ccccc2c1F` [Example 221, 4-(4-((1R,5S)-3,8-diazabicyclo[3.2.1]octan-3-yl)-8-fluoro-2-(((2R,7aS)-2-fluorotetrahydro-1H-pyrrolizin-7a(5H)-yl)methoxy)quinazolin-7-yl)-1-fluoronaphthalen-2-ol], the “Avg 2 h Coupled Exchange IC50” value in assay [1] was 1 nM. The IC50 in assay [2] is 139 nM; in assay [3] it was 1 nM; in assay [4], 325 nM.

In the case of `CCc1c(F)ccc2cc(O)cc(-c3c(F)cc4c(N5C[C@H]6CC[C@@H](C5)N6)nc(OC[C@@H]5C[C@@H](F)CN5C)nc4c3F)c12` [Example 89, 4-(4-((1R,5S)-3,8-diazabicyclo[3.2. 1]octan-3-yl)-6,8-difluoro-2-(((2S,4R)-4-fluoro-1-methylpyrrolidin-2-yl)methoxy)quinazolin-7-yl)-5-ethyl-6-fluoronaphthalen-2-ol], the “Avg 2 h Coupled Exchange IC50” value in assay [1] was found to be 4 nM. Moreover, the IC50 in assay [2] came out at 80 nM; in assay [3], 4 nM; in assay [4] it was 137 nM.

For the compound `CCc1c(F)ccc2cc(O)cc(-c3ccc4c(N5C[C@H]6CC[C@@H](C5)N6)nc(OCC(C)(C)O)nc4c3F)c12` [Example 131, 4-(4-((1R,5S)-3,8-diazabicyclo[3.2.1]octan-3-yl)-8-fluoro-2-(2-hydroxy-2-methylpropoxy)quinazolin-7-yl)-5-ethyl-6-fluoronaphthalen-2-ol], in assay [1], the “Avg 2 h Coupled Exchange IC50” value was 5 nM. Besides, the figures for the IC50 in assay [2], in assay [3] and in assay [4] were 682 nM, 9 nM and 926 nM, respectively.

Consider `C#Cc1c(F)ccc2cc(O)cc(-c3c(F)cc4c(N5C[C@@H]6CC[C@H]5CN6)nc(OC[C@@]56CCCN5C[C@H](F)C6)nc4c3F)c12` [Example 188, 4-(4-((15,4S)-2,5-diazabicyclo[2.2.2]octan-2-yl)-6,8-difluoro-2-(((2R,7aS)-2-fluorotetrahydro-1H-pyrrolizin-7a(5H)-yl)methoxy)quinazolin-7-yl)-5-ethynyl-6-fluoronaphthalen-2-ol], for which the “Avg 2 h Coupled Exchange IC50” value in assay [1] was found to be 2 nM. For the same compound, the results for the IC50 in assay [2], in assay [3] and in assay [4] were 2 nM, 2 nM and 16 nM, respectively.

`CCc1c(F)ccc2cc(O)cc(-c3ccc4c(N5C[C@H]6CC[C@@H](C5)N6)nc(OCCC(C)(C)O)nc4c3F)c12` [Example 132, 4-(4-((1R,5S)-3,8-diazabicyclo[3.2.1]octan-3-yl)-8-fluoro-2-(3-hydroxy-3-methylbutoxy)quinazolin-7-yl)-5-ethyl-6-fluoronaphthalen-2-ol]: the “Avg 2 h Coupled Exchange IC50” value in assay [1] worked out at 6 nM. The results for the IC50 in assay [2], in assay [3] and in assay [4] were 1690 nM, 16 nM and 1200 nM, respectively.

As to `CCc1c(F)ccc2cc(O)cc(-c3c(F)cc4c(N5C[C@H]6CC[C@@H](C5)N6)nc(OCC5(C)CCC(=O)O5)nc4c3F)c12` (stereo partly drawn) [Example 212, 5-(((4-((1R,5S)-3,8-Diazabicyclo[3.2.1]octan-3-yl)-7-(8-ethyl-7-fluoro-3-hydroxynaphthalen-1-yl)-6,8-difluoroquinazolin-2-yl)oxy)methyl)-5-methyldihydrofuran-2(3H)-one], the “Avg 2 h Coupled Exchange IC50” value in assay [1] came to 3 nM. Further, the IC50 turned out to be 514 nM in assay [2], 2 nM in assay [3] and 784 nM in assay [4].

Turning to `C#Cc1cccc2cc(O)cc(-c3ccc4c(N5C[C@H]6CC[C@@H](C5)N6)nc(OC[C@@]56CCCN5C[C@H](F)C6)nc4c3F)c12` [Example 185, 4-(4-((1R,5S)-3,8-diazabicyclo[3.2.1]octan-3-yl)-8-fluoro-2-(((2R,7aS)-2-fluorotetrahydro-1H-pyrrolizin-7a(5H)-yl)methoxy)quinazolin-7-yl)-5-ethynylnaphthalen-2-ol], the “Avg 2 h Coupled Exchange IC50” value in assay [1] was 1 nM. Further, the IC50 turned out to be 1 nM in assay [2], 1 nM in assay [3] and 16 nM in assay [4].

Take `Oc1cc(-c2ccc3c(N4C[C@@H]5CC[C@H]4CN5)nc(OC[C@@]45CCCN4C[C@H](F)C5)nc3c2F)c2c(F)c(F)ccc2c1` [Example 140, 4-(4-((1S,4S)-2,5-diazabicyclo[2.2.2]octan-2-yl)-8-fluoro-2-(((2R,7aS)-2-fluorotetrahydro-1H-pyrrolizin-7a(5H)-yl)methoxy)quinazolin-7-yl)-5,6-difluoronaphthalen-2-ol]: the “Avg 2 h Coupled Exchange IC50” value in assay [1] was determined as 1 nM. The IC50 was 11 nM in assay [2], 2 nM in assay [3] and 70 nM in assay [4].

Consider `CCc1cccc2cc(O)cc(-c3ccc4c(N5C[C@@H]6CC[C@H]5CN6)nc(OC[C@@]56CCCN5C[C@H](F)C6)nc4c3F)c12` [Example 110, 4-(4-((1S,4S)-2,5-diazabicyclo[2.2.2]octan-2-yl)-8-fluoro-2-(((2R,7aS)-2-fluorotetrahydro-1H-pyrrolizin-7a(5H)-yl)methoxy)quinazolin-7-yl)-5-ethylnaphthalen-2-ol], for which, in assay [1], the “Avg 2 h Coupled Exchange IC50” value was 3 nM. For the same compound, the values for the IC50 in assay [2], in assay [3] and in assay [4] were 10 nM, 4 nM and 26 nM, respectively.

For `CCc1c(F)ccc2cc(O)cc(-c3c(F)cc4c(N5C[C@H]6CC[C@@H](C5)N6)nc(OC[C@@]56CCCN5C[C@H](F)C6)nc4c3F)c12` [Example 88, 4-(4-((1R,5S)-3,8-diazabicyclo[3.2. 1]octan-3-yl)-6,8-difluoro-2-(((2R,7aS)-2-fluorotetrahydro-1H-pyrrolizin-7a(5H)-yl)methoxy)quinazolin-7-yl)-5-ethyl-6-fluoronaphthalen-2-ol], the “Avg 2 h Coupled Exchange IC50” value in assay [1] worked out at 4 nM. Besides, the values for the IC50 in assay [2], in assay [3] and in assay [4] were 3 nM, 4 nM and 9 nM, respectively.

Regarding `Oc1cc(-c2c(F)cc3c(N4[C@@H]5CC[C@H]4CNC5)nc(OC[C@@]45CCCN4C[C@H](F)C5)nc3c2F)c2c(F)c(F)ccc2c1` [Example 148, 4-(4-((1R,5S)-3,8-diazabicyclo[3.2.1]octan-8-yl)-6,8-difluoro-2-(((2R,7aS)-2-fluorotetrahydro-1H-pyrrolizin-7a(5H)-yl)methoxy)quinazolin-7-yl)-5,6-difluoronaphthalen-2-ol], in assay [1], the “Avg 2 h Coupled Exchange IC50” value came out at 2 nM. For the same compound, the IC50 came out at 83 nM in assay [2], 2 nM in assay [3] and 143 nM in assay [4].

In the case of `Oc1cc(-c2cc3nc(OC[C@@]45CCCN4C[C@H](F)C5)nc(N4C[C@H]5CC[C@@H](C4)N5)c3cc2F)c2c(Cl)cccc2c1` [Example 85, 4-(4-((1R,5S)-3,8-diazabicyclo[3.2. 1]octan-3-yl)-6-fluoro-2-(((2R,7aS)-2-fluorotetrahydro-1H-pyrrolizin-7a(5H)-yl)methoxy)quinazolin-7-yl)-5-chloronaphthalen-2-ol], the “Avg 2 h Coupled Exchange IC50” value in assay [1] was 1 nM. Moreover, the IC50 in assay [2] stood at 64 nM; in assay [3] it was 4 nM; in assay [4], 273 nM.

For the compound `CCc1c(F)ccc2cc(O)cc(-c3c(O)cc4c(N5[C@@H]6CC[C@H]5CNC6)nc(OC[C@@]56CCCN5C[C@H](F)C6)nc4c3F)c12` [Example 200, 4-((1R,5S)-3,8-diazabicyclo[3.2.1]octan-8-yl)-7-(8-ethyl-7-fluoro-3-hydroxynaphthalen-1-yl)-8-fluoro-2-(((2R,7aS)-2-fluorotetrahydro-1H-pyrrolizin-7a(5H)-yl)methoxy) quinazolin-6-ol], the “Avg 2 h Coupled Exchange IC50” value in assay [1] was determined as 4 nM. In addition, the results for the IC50 in assay [2], in assay [3] and in assay [4] were 11 nM, 4 nM and 54 nM, respectively.
